Measurements published in PubChem BioAssay (NCI).
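Interpolation was linear, between the two tested concentrations surrounding the appropriate level; five concentrations were tested over 48 hours in 96-well plates. TGI: concentration producing complete growth inhibition.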

Key:
Assay in all cases: NCI-60 cell line screen, 48 h
SK-OV-3 ovarian = tested on: SK-OV-3 ovarian
M14 melanoma = tested on: M14 melanoma
MALME-3M melanoma = tested on: MALME-3M melanoma
A498 renal = tested on: A498 renal
UACC-257 melanoma = tested on: UACC-257 melanoma
HCT-15 colon = tested on: HCT-15 colon
PC-3 prostate = tested on: PC-3 prostate
MDA-MB-231 breast = tested on: MDA-MB-231 breast
HS 578T breast = tested on: HS 578T breast
NCI/ADR-RES ovarian = tested on: NCI/ADR-RES ovarian

SMILES	TGI (SK-OV-3 ovarian) [µM]	TGI (M14 melanoma) [µM]	TGI (MALME-3M melanoma) [µM]	TGI (A498 renal) [µM]	TGI (UACC-257 melanoma) [µM]	TGI (HCT-15 colon) [µM]	TGI (PC-3 prostate) [µM]	TGI (MDA-MB-231 breast) [µM]	TGI (HS 578T breast) [µM]	TGI (NCI/ADR-RES ovarian) [µM]
CCOC(=O)C(C)(C)Oc1ccc2c(=O)cc(-c3ccccc3)oc2c1	> 100	36.3	37.6	> 100	31.2	54.8	–	–	–	–
C=CCC(CNC(=O)OCc1ccccc1)O[Si](C)(C)C(C)(C)C (stereo not drawn)	> 100	> 100	–	> 100	83.7	> 100	> 100	37	> 100	> 100
O=C1/C(=C/c2ccccc2)CCc2ccc(Cl)nc21	73	23.6	27.2	34.6	20.4	11.4	29.9	40.6	–	> 63.7
Cc1cccc(C(C)(C)C)c1NC(=O)/C(Cc1nc2ccc([N+](=O)[O-])cc2[nH]c1=O)=N/NC(=O)C[N+](C)(C)C	> 100	> 100	> 100	> 100	> 100	> 100	> 100	> 100	> 100	> 100
CN(C(=O)C1(C(=O)C=[N+]=[N-])CC1)c1ccccc1	–	> 100	> 100	–	> 100	> 100	> 100	> 100	> 100	> 100
CNC(=O)CCC(NC(C)=O)C(=O)NC(Cc1ccc(NC(=O)CCCCC(C)=O)cc1)C(=O)NC(CCC(=O)NC)C(=O)NC (stereo not drawn)	> 100	> 100	> 100	> 100	–	> 100	> 100	> 100	> 100	> 100
Cc1cc2ccccc2c[n+]1CC(O)C[n+]1cc2ccccc2cc1C	–	> 100	> 100	> 100	> 100	> 100	> 100	> 100	> 100	> 100
CC1(C)O[C@@H](CO)[C@H]([C@@]23OC[C@H]4OC(C)(C)OC4[C@@H]2OC(C)(C)O3)O1 (stereo partly drawn)	> 100	> 100	> 100	–	–	> 100	> 100	> 100	> 100	> 100
O=C(C1=C(C(=O)c2ccccc2)SC2(S1)C(C(=O)c1ccccc1)=C(C(=O)c1ccccc1)Sc1c2ssc1=O)c1ccccc1	> 100	> 100	> 100	31.2	> 100	> 100	> 100	> 100	> 100	> 100
COc1cc2cc(C(=O)N3CC(CCl)c4c3cc(N)c3ccccc43)[nH]c2cc1OCCN(C)C (stereo not drawn)	0.881	0.00977	–	< 0.005	16.8	5.45	5.5	0.0173	0.125	0.175
O=C(CC(O)(C(F)(F)F)C(F)(F)F)C(CCCl)C(O)(C(F)(F)F)C(F)(F)F (stereo not drawn)	> 100	> 100	76.1	64.8	91.2	> 100	> 100	> 100	> 100	46.7
CC1=CC(O)C(O)C2(C)C1CC1OC(=O)C(O)C3C(C)C(O)C4(O)OCC13C42 (stereo not drawn)	359	–	464	72.1	467	> 625	–	–	–	> 625
N#Cc1c(Nc2ccc(F)cc2)[n+]([O-])c2ccc(Cl)cc2[n+]1[O-]	36.7	44.2	> 100	8.63	11.9	13.3	> 100	16.7	> 100	5.37
Cc1cc2ccccc2n1CC(=O)NCC(C)C	> 100	> 100	> 100	–	> 100	> 100	> 100	> 100	> 100	> 100
Nc1ccc2c(c1)C(=O)c1ccccc1-2	–	> 100	> 100	> 100	> 100	> 100	> 100	> 100	> 100	> 100
CC1=C(C(=O)OCCc2ccc([N+](=O)[O-])cc2)C(c2ccccc2[N+](=O)[O-])C(C(=O)OC(C)C)=C(C)N1 (stereo not drawn)	> 100	36.7	> 100	–	> 100	> 100	18	> 100	> 100	20
CC(NC(=O)/C(=C/c1ccccc1O)NC(=O)c1ccccc1)C(=O)O (stereo not drawn)	50.2	> 100	> 100	> 100	> 100	80.4	–	60	38.2	33.4
COc1cccc(NC(=O)CSc2nnc(-c3ccc(N=Cc4ccc(Cl)cc4)cc3)o2)c1	> 100	47	39.3	–	–	33.8	–	–	–	–
c1ccc(CCN2CCCCCC2)nc1	> 100	> 100	> 100	> 100	–	> 100	> 100	> 100	> 100	> 100
COC(=O)[C@H](C)N1C(=O)N[C@@H](C(C)C)C1=O	> 100	> 100	> 100	–	> 100	> 100	> 100	> 100	–	> 100
NC(Cc1cc(I)c(O)c(I)c1)C(=O)O (stereo not drawn)	> 500	–	> 500	> 500	> 354	> 362	–	–	–	> 316
CCCCc1c2c(nc3c1CCc1cc4c(nc1-3)-c1nc3c(c(CCCC)c1CC4)CCC/C3=C\c1ccccc1)/C(=C/c1ccccc1)CCC2	> 100	> 100	> 100	> 100	> 100	> 100	–	–	–	–
COc1ccc(C(O)c2ccc3c(c2)OCO3)cc1 (stereo not drawn)	> 100	> 100	> 100	> 100	> 100	> 100	> 100	> 100	–	> 100
Cc1cc(C)c(S(=O)(=O)N(CCCCN)OCCCN)c(C)c1	31.8	35.9	36.3	–	30.2	–	27.6	–	34.4	36.5
